According to ChEMBL document CHEMBL3792297, “Studies on phenothiazines: New microtubule-interacting compounds with phenothiazine A-ring as potent antineoplastic agents” (Bioorg Med Chem, 2016):

Legend:
Format in all cases: functional
[1] = Growth inhibition of human HL-60(TB) cells at 10 uM after 48 hrs by SRB assay relative to control; conditions: HL-60, 48 h, read-out: GI
A549 = assay: Growth inhibition of human A549 cells at 10 uM after 48 hrs by SRB assay relative to control; conditions: A549, 48 h, read-out: GI
[2] = Growth inhibition of human IGROV1 cells at 10 uM after 48 hrs by SRB assay relative to control; conditions: IGROV-1, 48 h, read-out: GI
MDA-MB-435 = assay: Growth inhibition of human MDA-MB-435 cells at 10 uM after 48 hrs by SRB assay relative to control; conditions: MDA-MB-435, 48 h, read-out: GI
SR = assay: Growth inhibition of human SR cells at 10 uM after 48 hrs by SRB assay relative to control; conditions: read-out: GI
K562 = assay: Growth inhibition of human K562 cells at 10 uM after 48 hrs by SRB assay relative to control; conditions: K562, 48 h, read-out: GI
[3] = Growth inhibition of human HOP92 cells at 10 uM after 48 hrs by SRB assay relative to control; conditions: HOP-92, 48 h, read-out: GI
[4] = Growth inhibition of human HCT116 cells at 10 uM after 48 hrs by SRB assay relative to control; conditions: HCT-116, 48 h, read-out: GI
SK-MEL-28 = assay: Growth inhibition of human SK-MEL-28 cells at 10 uM after 48 hrs by SRB assay relative to control; conditions: SK-MEL-28, 48 h, read-out: GI
EKVX = assay: Growth inhibition of human EKVX cells at 10 uM after 48 hrs by SRB assay relative to control; conditions: read-out: GI
[5] = Growth inhibition of human SW620 cells at 10 uM after 48 hrs by SRB assay relative to control; conditions: SW-620, 48 h, read-out: GI
MCF7 = assay: Growth inhibition of human MCF7 cells at 10 uM after 48 hrs by SRB assay relative to control; conditions: MCF7, 48 h, read-out: GI
[6] = Growth inhibition of human SF539 cells at 10 uM after 48 hrs by SRB assay relative to control; conditions: SF-539, 48 h, read-out: GI
MDA-MB-231 = assay: Growth inhibition of human MDA-MB-231 cells at 10 uM after 48 hrs by SRB assay relative to control; conditions: MDA-MB-231, 48 h, read-out: GI
[7] = Growth inhibition of human PC3 cells at 10 uM after 48 hrs by SRB assay relative to control; conditions: PC-3, 48 h, read-out: GI
[8] = Growth inhibition of human Caki1 cells at 10 uM after 48 hrs by SRB assay relative to control; conditions: CAKI-1, 48 h, read-out: GI
CCRF-CEM = assay: Growth inhibition of human CCRF-CEM cells at 10 uM after 48 hrs by SRB assay relative to control; conditions: read-out: GI
[9] = Growth inhibition of human OVCAR5 cells at 10 uM after 48 hrs by SRB assay relative to control; conditions: OVCAR-5, 48 h, read-out: GI
[10] = Growth inhibition of human SNB19 cells at 10 uM after 48 hrs by SRB assay relative to control; conditions: SNB-19, 48 h, read-out: GI
SK-MEL-5 = assay: Growth inhibition of human SK-MEL-5 cells at 10 uM after 48 hrs by SRB assay relative to control; conditions: SK-MEL-5, 48 h, read-out: GI
NCI-H460 = assay: Growth inhibition of human NCI-H460 cells at 10 uM after 48 hrs by SRB assay relative to control; conditions: NCI-H460, 48 h, read-out: GI
MDA-MB-468 = assay: Growth inhibition of human MDA-MB-468 cells at 10 uM after 48 hrs by SRB assay relative to control; conditions: MDA-MB-468, 48 h, read-out: GI
[11] = Growth inhibition of human BT549 cells at 10 uM after 48 hrs by SRB assay relative to control; conditions: BT-549, 48 h, read-out: GI
[12] = Growth inhibition of human COLO205 cells at 10 uM after 48 hrs by SRB assay relative to control; conditions: COLO 205, 48 h, read-out: GI
NCI-H23 = assay: Growth inhibition of human NCI-H23 cells at 10 uM after 48 hrs by SRB assay relative to control; conditions: NCI-H23, 48 h, read-out: GI
NCI-H226 = assay: Growth inhibition of human NCI-H226 cells at 10 uM after 48 hrs by SRB assay relative to control; conditions: NCI-H226, 48 h, read-out: GI
NCI-H322M = assay: Growth inhibition of human NCI-H322M cells at 10 uM after 48 hrs by SRB assay relative to control; conditions: read-out: GI
HT-29 = assay: Growth inhibition of human HT-29 cells at 10 uM after 48 hrs by SRB assay relative to control; conditions: HT-29, 48 h, read-out: GI
786-0 = assay: Growth inhibition of human 786-0 cells at 10 uM after 48 hrs by SRB assay relative to control; conditions: 786-0, 48 h, read-out: GI
[13] = Growth inhibition of human UACC62 cells at 10 uM after 48 hrs by SRB assay relative to control; conditions: UACC-62, 48 h, read-out: GI
[14] = Growth inhibition of human OVCAR4 cells at 10 uM after 48 hrs by SRB assay relative to control; conditions: OVCAR-4, 48 h, read-out: GI
NCI-H522 = assay: Growth inhibition of human NCI-H522 cells at 10 uM after 48 hrs by SRB assay relative to control; conditions: NCI-H522, 48 h, read-out: GI
[15] = Growth inhibition of human HCT15 cells at 10 uM after 48 hrs by SRB assay relative to control; conditions: HCT-15, 48 h, read-out: GI
[16] = Growth inhibition of human UACC257 cells at 10 uM after 48 hrs by SRB assay relative to control; conditions: UACC-257, 48 h, read-out: GI
KM12 = assay: Growth inhibition of human KM12 cells at 10 uM after 48 hrs by SRB assay relative to control; conditions: KM12, 48 h, read-out: GI
[17] = Growth inhibition of human SKOV3 cells at 10 uM after 48 hrs by SRB assay relative to control; conditions: SK-OV-3, 48 h, read-out: GI
[18] = Growth inhibition of human TK10 cells at 10 uM after 48 hrs by SRB assay relative to control; conditions: TK-10, 48 h, read-out: GI
A498 = assay: Growth inhibition of human A498 cells at 10 uM after 48 hrs by SRB assay relative to control; conditions: A498, 48 h, read-out: GI

Work on COc1ccc(C(=O)N2c3ccccc3Sc3ccccc32)c(F)c1 yielded an inhibition of growth at 10 µM [1] of 85%, an inhibition of growth at 10 µM (A549) of 73% and an inhibition of growth at 10 µM [2] of 45%. For the same compound, the inhibition of growth at 10 µM (MDA-MB-435) was 100%, the inhibition of growth at 10 µM (SR) was 77% and the inhibition of growth at 10 µM (K562) was 87%. The inhibition of growth at 10 µM [3] was 58%, the inhibition of growth at 10 µM [4] was 80% and the inhibition of growth at 10 µM (SK-MEL-28) was 41%. For the same compound, the inhibition of growth at 10 µM (EKVX) was 56%, the inhibition of growth at 10 µM [5] was 85% and the inhibition of growth at 10 µM (MCF7) was 76%. For the same compound, the inhibition of growth at 10 µM [6] was 100%, the inhibition of growth at 10 µM (MDA-MB-231) was 47% and the inhibition of growth at 10 µM [7] was 70%. For the same compound, the inhibition of growth at 10 µM [8] was 55%, the inhibition of growth at 10 µM (CCRF-CEM) was 83% and the inhibition of growth at 10 µM [9] was 38%. For the same compound, the inhibition of growth at 10 µM [10] was 64%, the inhibition of growth at 10 µM (SK-MEL-5) was 84% and the inhibition of growth at 10 µM (NCI-H460) was 88%. The inhibition of growth at 10 µM (MDA-MB-468) was 100%, the inhibition of growth at 10 µM [11] was 77% and the inhibition of growth at 10 µM [12] was 92%. It also gave an inhibition of growth at 10 µM (NCI-H23) of 68%, an inhibition of growth at 10 µM (NCI-H226) of 54% and an inhibition of growth at 10 µM (NCI-H322M) of 56%. It also gave an inhibition of growth at 10 µM (HT-29) of 95%, an inhibition of growth at 10 µM (786-0) of 77% and an inhibition of growth at 10 µM [13] of 77%. The inhibition of growth at 10 µM [14] was 51%, the inhibition of growth at 10 µM (NCI-H522) was 99% and the inhibition of growth at 10 µM [15] was 73%. For the same compound, the inhibition of growth at 10 µM [16] was 33%, the inhibition of growth at 10 µM (KM12) was 77% and the inhibition of growth at 10 µM [17] was 62%. For the same compound, the inhibition of growth at 10 µM [18] was 55% and the inhibition of growth at 10 µM (A498) was 98%.

Work on O=C(c1ccc(F)cc1F)N1c2ccccc2Sc2ccccc21 yielded an inhibition of growth at 10 µM [1] of 71%, an inhibition of growth at 10 µM (A549) of 48% and an inhibition of growth at 10 µM [2] of 33%. It also gave an inhibition of growth at 10 µM (MDA-MB-435) of 80%, an inhibition of growth at 10 µM (SR) of 72% and an inhibition of growth at 10 µM (K562) of 82%. For the same compound, the inhibition of growth at 10 µM [3] was 39%, the inhibition of growth at 10 µM [4] was 73% and the inhibition of growth at 10 µM (SK-MEL-28) was 41%. For the same compound, the inhibition of growth at 10 µM (EKVX) was 20%, the inhibition of growth at 10 µM [5] was 66% and the inhibition of growth at 10 µM (MCF7) was 48%. For the same compound, the inhibition of growth at 10 µM [6] was 49%, the inhibition of growth at 10 µM (MDA-MB-231) was 38% and the inhibition of growth at 10 µM [7] was 58%. For the same compound, the inhibition of growth at 10 µM [8] was 51%, the inhibition of growth at 10 µM (CCRF-CEM) was 38% and the inhibition of growth at 10 µM [9] was 21%. It also gave an inhibition of growth at 10 µM [10] of 37%, an inhibition of growth at 10 µM (SK-MEL-5) of 68% and an inhibition of growth at 10 µM (NCI-H460) of 80%. For the same compound, the inhibition of growth at 10 µM (MDA-MB-468) was 64%, the inhibition of growth at 10 µM [11] was 43% and the inhibition of growth at 10 µM [12] was 56%. For the same compound, the inhibition of growth at 10 µM (NCI-H23) was 23%, the inhibition of growth at 10 µM (NCI-H226) was 30% and the inhibition of growth at 10 µM (NCI-H322M) was 8%. It also gave an inhibition of growth at 10 µM (HT-29) of 68%, an inhibition of growth at 10 µM (786-0) of 26% and an inhibition of growth at 10 µM [13] of 68%. The inhibition of growth at 10 µM [14] was 17%, the inhibition of growth at 10 µM (NCI-H522) was 41% and the inhibition of growth at 10 µM [15] was 76%. The inhibition of growth at 10 µM [16] was 44%, the inhibition of growth at 10 µM (KM12) was 62% and the inhibition of growth at 10 µM [17] was 22%. For the same compound, the inhibition of growth at 10 µM [18] was 23% and the inhibition of growth at 10 µM (A498) was 38%.

COc1ccc(C(=O)N2c3ccccc3Sc3ccccc32)c(C(F)(F)F)c1 gave an inhibition of growth at 10 µM [1] of 98%, an inhibition of growth at 10 µM (A549) of 75% and an inhibition of growth at 10 µM [2] of 62%. It also gave an inhibition of growth at 10 µM (MDA-MB-435) of 100%, an inhibition of growth at 10 µM (SR) of 84% and an inhibition of growth at 10 µM (K562) of 100%. The inhibition of growth at 10 µM [3] was 85%, the inhibition of growth at 10 µM [4] was 93% and the inhibition of growth at 10 µM (SK-MEL-28) was 48%. It also gave an inhibition of growth at 10 µM (EKVX) of 54%, an inhibition of growth at 10 µM [5] of 75% and an inhibition of growth at 10 µM (MCF7) of 83%. For the same compound, the inhibition of growth at 10 µM [6] was 100%, the inhibition of growth at 10 µM (MDA-MB-231) was 76% and the inhibition of growth at 10 µM [7] was 85%. For the same compound, the inhibition of growth at 10 µM [8] was 68%, the inhibition of growth at 10 µM (CCRF-CEM) was 78% and the inhibition of growth at 10 µM [9] was 55%. It also gave an inhibition of growth at 10 µM [10] of 69%, an inhibition of growth at 10 µM (SK-MEL-5) of 95% and an inhibition of growth at 10 µM (NCI-H460) of 90%. For the same compound, the inhibition of growth at 10 µM (MDA-MB-468) was 70%, the inhibition of growth at 10 µM [11] was 89% and the inhibition of growth at 10 µM [12] was 100%. It also gave an inhibition of growth at 10 µM (NCI-H23) of 76%, an inhibition of growth at 10 µM (NCI-H226) of 87% and an inhibition of growth at 10 µM (NCI-H322M) of 47%. It also gave an inhibition of growth at 10 µM (HT-29) of 97%, an inhibition of growth at 10 µM (786-0) of 61% and an inhibition of growth at 10 µM [13] of 68%. The inhibition of growth at 10 µM [14] was 53%, the inhibition of growth at 10 µM (NCI-H522) was 98% and the inhibition of growth at 10 µM [15] was 82%. The inhibition of growth at 10 µM [16] was 38%, the inhibition of growth at 10 µM (KM12) was 82% and the inhibition of growth at 10 µM [17] was 66%. For the same compound, the inhibition of growth at 10 µM [18] was 43% and the inhibition of growth at 10 µM (A498) was 91%.
